Data from patent publication US4547509A, “5,6,7-Quinoline carbanilates and method of treating ischemic heart disease therewith” (USV Pharmaceutical Corp., priority 1983, dated 1985).

Tests used:
Canine cardiac lipases [1] = assay: Myocardial Lipase Assay; type: biochemical; settings: 100 μM compound, 3.0% DMSO, triolein emulsion, pH 6.8, tested in duplicate
Description: All compounds were dissolved in DMSO (final concentration 3.0%) and tested in duplicate at a concentration of 100 μm. Canine cardiac lipases were obtained by extracting washed heart membranes with buffer plus heparin and a small amount of Triton X-100 detergent. Because these enzymes are only active at an oil-water interface, the enzyme reaction is run in an oil-water emulsion that contains triolein substrate, Tris buffer (50 mM, pH 6.8) and a small amount of bovine serum albumin (0.5%) added to stabilize the emulsion. A small amount of tritiated triolein was added to the unlabelled triolein substrate. Tritium-labelled oleic acid released by the lipases was extracted into hexane, separated from unreacted triolein and counted in a scintillation counter. Inhibitory agents reduce the amount of radioactivity appearing in the free fatty acid fraction isolated in the extraction procedure.

rat adipocyte lipolysis = assay: Rat Adipocyte Assay (epinephrine-stimulated lipolysis, glycerol release); type: cell-based; settings: epinephrine 3 μM plus methylisobutylxanthine 10 μM, 1 hour at 37° C.; for inhibition at 30 µM: 30 μM compound, read-out: Adipocyte % Inhib. at 30 μM; for inhibition at 200 µM: 200 μM compound, read-out: Adipocyte % Inhib. at 200 μM; for IC50: read-out: Adipocyte I50
Description: Abdominal fat pads were removed from male rats weighing 200-250 grams and placed in Krebs-bicarbonate buffer gassed with 95% O2 /5% CO2. The fat pads were digested with collagenase for 1 hour at 37° C., washed twice with Krebs-bicarbonate buffer and distributed among a set of 20 ml plastic counting vials. Two such vials received only buffer and cells (4 ml) but no angonists or antagonists. The remaining vials received epinephrine (3 μM) plus the phosphodiesterase inhibitor methylisobutylxanthine (10 μM). Test compounds were dissolved in DMSO or water to a concentration of 20 mM or 40 μl was added to the buffer plus cells in the counting vials. The final compound concentration for routine screening was 200 μM (final concentration of DMSO=1%).
The cells were incubated for 1 hour at 37° C. under 95% O2 /5% CO2 atmosphere. The incubation was stopped by placing the vials in crushed ice. The cells and medium were transferred to test tubes, centrifuged and the cell layer removed by aspiration. The aqueous phase was assayed for glycerol using the enzyme glycerol dehydrogenase.
The glycerol dehydrogenase assay for glycerol depends on the enzyme catalyzed conversion of glycerol to glyceraldehyde and NAD to NADH. The assay can detect as little as 5-10 nanomoles of glycerol. The aqueous phase, following removal of cells, usually contained about 50 to 80 nanomoles of glycerol per 300 μl of assayed sample if no inhibitory activity was present. Samples from the control tubes (no agonist) usually contained 0-5 nanomoles of glycerol per 300 μl of sample.

Canine cardiac lipases [2] = assay: Myocardial Lipase Assay; type: biochemical; settings: triolein emulsion, pH 6.8; read-out: Lipase I50

Structure (SMILES): O=C(Nc1ccccc1C(F)(F)F)Oc1ccc2cccnc2c1 [Example 11, 7-quinolyl-2-trifluoromethyl carbanilate]
- Lipase % Inh. at 100 μM (Canine cardiac lipases [1]): 12%

Structure (SMILES): COc1ccc(NC(=O)Oc2cccc3ncccc23)cc1 [Example 3, 5-quinolyl-4-methoxy carbanilate]
- inhibition at 30 µM (rat adipocyte lipolysis): 1%
- Lipase % Inh. at 100 μM (Canine cardiac lipases [1]): 63%

Structure (SMILES): COc1ccc(NC(=O)Oc2ccc3cccnc3c2)cc1 [Example 1]
- inhibition at 30 µM (rat adipocyte lipolysis): 0%
- Lipase % Inh. at 100 μM (Canine cardiac lipases [1]): 60%

Structure (SMILES): COc1ccccc1NC(=O)Oc1cccc2ncccc12 [Example 6, 5-quinolyl-2-methoxy carbanilate]
- IC50 (Canine cardiac lipases [2]): 48 µM
- inhibition at 200 µM (rat adipocyte lipolysis): 31%

Structure (SMILES): COc1cccc(NC(=O)Oc2ccc3cccnc3c2)c1 [Example 7, 7-quinolyl-3-methoxy carbanilate]
- inhibition at 200 µM (rat adipocyte lipolysis): 25%
- Lipase % Inh. at 100 μM (Canine cardiac lipases [1]): 52%

Structure (SMILES): COc1ccc(NC(=O)Oc2ccc3ncccc3c2)cc1 [Example 2, 6-quinolyl-4-methoxy carbanilate]
- inhibition at 30 µM (rat adipocyte lipolysis): 8%
- Lipase % Inh. at 100 μM (Canine cardiac lipases [1]): 64%

Structure (SMILES): CCOC(=O)c1ccc(NC(=O)Oc2ccc3cccnc3c2)cc1 [Example 8, 7-quinolyl-4-carbethoxy carbanilate]
- inhibition at 200 µM (rat adipocyte lipolysis): 18%
- Lipase % Inh. at 100 μM (Canine cardiac lipases [1]): 46%

Structure (SMILES): COc1ccccc1NC(=O)Oc1ccc2cccnc2c1 [Example 4, 7-quinolyl-2-methoxy carbanilate]
- IC50 (Canine cardiac lipases [2]): 48 µM
- IC50 (rat adipocyte lipolysis): 80 µM

Structure (SMILES): Cc1ccccc1NC(=O)Oc1ccc2cccnc2c1 [Example 10, 7-quinolyl-2-methyl carbanilate]
- inhibition at 200 µM (rat adipocyte lipolysis): 20%
- Lipase % Inh. at 100 μM (Canine cardiac lipases [1]): 45%

Structure (SMILES): COc1ccc(CCNC(=O)Oc2ccc3cccnc3c2)cc1 [Example 12, 7-quinolyl-4-methoxy phenethyl carbamate]
- inhibition at 100 µM (rat adipocyte lipolysis; 100 μM compound, read-out: Adipocyte % Inhib. at 100 μM): 84%
- Lipase % Inh. at 100 μM (Canine cardiac lipases [1]): 97%

Structure (SMILES): O=C(Nc1ccccc1Cl)Oc1ccc2cccnc2c1 [Example 9, 7-quinolyl-2-chloro carbanilate]
- Lipase % Inh. at 100 μM (Canine cardiac lipases [1]): 6%

Structure (SMILES): COc1ccccc1NC(=O)Oc1ccc2ncccc2c1 [Example 5, 6-quinolyl-2-methoxy carbanilate]
- IC50 (Canine cardiac lipases [2]): 42 µM
- IC50 (rat adipocyte lipolysis): 30 µM
